{"source": "patent US20180110796A1", "about": "“COMPOSITIONS AND METHODS FOR THE TREATMENT OF HBV INFECTION” (Spring Bank Pharmaceuticals, Inc., priority 2015, published 2018)", "key": {"[1]": {"test_system": "wild type HBV or resistant variants of HBV (polymerase M204V, M204I, L180M, L180M/M204V, N236T)", "test": "Antiviral assays in cells chronically infected with wild type HBV or resistant variants (Example 4)", "assay_type": "cell-based", "conditions": "added to the cells daily for nine consecutive days", "procedure": "Antiviral assays were carried out in cells chronically infected with resistant variants of HBV. In order to gauge the efficacy of Formula (IIa) and the antiviral nucleoside analogs lamivudine (3TC) and adefovir dipivoxil (ADV) against the tested strains, the in vitro activity (EC50, μM) was determined using six different cell samples chronically infected with HBV. Each cell sample was infected with either wild type HBV or a resistant variant of HBV, wherein the resistant variants comprise mutations in the HBV polymerase (P) at the following amino acid positions: M204V, M204I, L180M, L180M/M204V, and N236T. In each assay, Formula (IIa), 3TC, or ADV was added to the cells daily for nine consecutive days."}, "[2]": {"test_system": "IFN-α, IFN-β, CXCL10, IL-6, ISG15, OAS1, RIG-I/NOD2 pathway transcripts", "test": "Host immune response gene transcripts in blood and liver by real time PCR (Example 2)", "assay_type": "in vivo, woodchuck (Marmota monax)", "procedure": "Immune responses associated with Formula (IIa) treatment were determined by changes in RNA transcript levels of IFN-α, IFN-β, IFN-γ induced protein 10 (IP-10 or CXCL10), interleukin 6 (IL-6), interferon-induced 17 kDa protein (ISG15), and 2′-5′-oligoadenylate synthetase 1 (OAS1) in blood and liver using PCR techniques. Whole blood was collected into PAXgene blood tubes (Qiagen, Redwood City, Calif.) at pretreatment (week-1 and T0), during treatment (weeks 6 and 12), and during follow-up (week 18) and stored at −70° C. until use. Total RNA was isolated with on-column DNase I digestion using the PAXgene Blood miRNA Kit (Qiagen). Total RNA was further isolated from liver biopsy samples collected at pretreatment (week-1), during treatment (weeks 6 and 12), and at the end of the study (week 20) using the RNeasy Mini Kit (Qiagen) with on-column DNase I digestion using the RNase-Free DNase Set (Qiagen). Following reverse transcription of mRNA with the High Capacity cDNA Reverse Transcription Kit (Applied Biosystems) using oligo(dT), complementary (c) DNA samples were amplified on a 7500 Real Time PCR System instrument (Applied Biosystems) using TaqMan Gene Expression Master Mix (Applied Biosystems) and woodchuck-specific primers and probes (Supplementary Table 1). Woodchuck 18S rRNA expression was used to normalize target gene expression. Transcription levels of target genes were calculated as a fold-change relative to pretreatment level at week-1 (liver) or at T0 (blood) using the formula 2^−ΔΔCt. Samples from a subset of woodchucks from the LD and HD groups were analyzed for expression changes of genes involved in the RIG-I/NOD2 pathway induced by Formula (IIa), including RIG-I, NOD2, transmembrane protein 173 (TMEM173 or STING), interferon regulatory factor 3 (IRF3), and IRF7."}, "[3]": {"test_system": "HCV, Norovirus and RSV", "test": "In vitro and in vivo studies against RNA viruses", "text": "(§1) During viral infections, virus-derived nucleic acids (both DNA and RNA) are mainly sensed by certain pattern-recognition receptors such as RIG-1 and NOD2 which are located within the cytoplasm of cells, including hepatocytes. Binding of these viral sensor proteins to PAMP within the viral nucleic acids activates downstream signaling pathways which include the mitochondrial antiviral signaling protein (MAVS) leading to the induction of the IFN-regulatory factor-3 (IRF-3) and NF-κB dependent gene expression, and the subsequent production of type I and type III IFNs and inflammatory cytokines. Thus, sensing of viral nucleic acids is a crucial process to induce antiviral innate immune responses for limiting viral replication and for activation of adaptive immunity. For HBV it has been recently shown that RIG-1 sensing is mediated through recognition of the 5′-end ϵ region of the HBV pg RNA which leads to the induction of type III rather than type I IFNs in human primary hepatocytes in response to in vitro infection. In addition, activated RIG-1 is able to counter-act the interaction of the HBV polymerase protein with the HBV pgRNA in an IFN pathway independent manner resulting in suppressed viral replication. […]"}, "[4]": {"test_system": "HBV", "test": "Dose-ranging study in the HBV transgenic mouse model", "assay_type": "in vivo", "conditions": "once-daily oral 1 to 100 mg/kg/day for 14 days"}, "[5]": {"test_system": "woodchuck hepatitis virus (WHV)", "test": "Antiviral efficacy of oral Formula (IIa) in chronic WHV carrier woodchucks (Example 2)", "assay_type": "in vivo, woodchuck (Marmota monax)", "conditions": "for weeks per approximately 1 log10 decline of serum WHV DNA: 12-week treatment; for average reduction of serum WHV DNA at the end of treatment: week 12, vs T0; for maximum reduction of hepatic WHV DNA RI from pretreatment level / maximum reduction of hepatic WHV RNA from pretreatment level / maximum reduction of hepatic WHV cccDNA from pretreatment level: after 12 weeks; for maximum reduction of serum WHsAg: after 12 weeks of treatment"}, "[6]": {"test_system": "HBV-infected primary human hepatocytes", "test": "In vitro studies using HBV-infected primary human hepatocytes", "assay_type": "cell-based", "text": "as §1"}, "[7]": {"test": "Plasma levels by LC-MS after oral Formula (IIa) (Example 2)", "assay_type": "in vivo, woodchuck (Marmota monax)", "conditions": "15 and 30 mg/kg oral, approximately 2 hours post-dose", "procedure": "Plasma levels of Formula (Ia) were evaluated at pretreatment (T0) and then bi-weekly throughout the study at approximately 2 hours post-dose. Woodchuck plasma was analyzed by LC-MS and quantified using isotopically enriched internal standards."}, "[8]": {"conditions": "15 and 30 mg/kg, all treated woodchucks"}}, "data": [{"compound": "COC1[C@@H](OP(=O)(OC[C@H]2O[C@@H](n3cnc4c(N)ncnc43)C[C@H]2O)SCOC(=O)OC(C)C)[C@@H](CO)O[C@H]1n1ccc(=O)[nH]c1=O", "note": "(stereo partly drawn) [Formula (IIa)]", "values": [{"measurement": "efficacy against cells infected with wild type and resistant HBV strains (in vitro activity, FIG. 31)", "setting": "[1]", "value": "efficacious against cells infected with all the HBV strains tested"}, {"measurement": "activation of the RIG-I/NOD2 pathway (liver transcript levels of RIG-I, NOD2, TMEM173, IRF3)", "setting": "[2]; 15 or 30 mg/kg, n=3 each", "value": "long-lasting activation"}, {"measurement": "CXCL10 expression in liver", "setting": "[2]; both dose groups, liver", "value": "significantly induced"}, {"measurement": "mRNA expression of type I IFNs (IFN-α, IFN-β) and ISGs (OAS1, ISG15) in blood versus pretreatment", "setting": "[2]; high dose 30 mg/kg, blood", "value": "significant induction"}, {"measurement": "expression of IFN-β, IL-6 and OAS1 in liver versus pretreatment", "setting": "[2]; high dose group, liver", "value": "significantly increased expression"}, {"measurement": "expression of IL-6 and CXCL10 in blood versus pretreatment", "setting": "[2]; low and high doses, blood", "value": "significantly induced"}, {"measurement": "expression of IFN-α in liver versus pretreatment", "setting": "[2]; low dose group, liver", "value": "significantly induced"}, {"measurement": "antiviral activity against RNA viruses including HCV, Norovirus and RSV", "setting": "[3]", "value": "potent antiviral activity"}, {"measurement": "liver HBV DNA", "setting": "[4]", "value": "significant reduction"}, {"measurement": "seroconversion to anti-WHs antibodies and anti-WHe antibodies", "setting": "[5]; 15 and 30 mg/kg, 12 weeks", "value": "not observed"}, {"measurement": "hepatic expression scores of cytoplasmic WHcAg from pretreatment level", "setting": "[5]; [8]", "value": "dose-dependent, transient reductions"}, {"measurement": "scores of liver inflammation during the 12-week treatment period", "setting": "[5]; [8]", "value": "unchanged or even reduced"}, {"measurement": "delay in WHsAg rebound, high dose versus low dose", "setting": "[5]; high dose 30 mg/kg", "value": "1-7 week"}, {"measurement": "delay in relapse of serum WHV DNA, high dose versus low dose", "setting": "[5]; high dose 30 mg/kg", "value": "2-4 weeks"}, {"measurement": "time for serum WHV DNA to return to pretreatment level after withdrawal", "setting": "[5]; high dose 30 mg/kg", "value": "5-7 weeks"}, {"measurement": "time for serum WHsAg to return to pretreatment level after the end of treatment", "setting": "[5]; high dose 30 mg/kg", "value": "6-8 weeks"}, {"measurement": "weeks per approximately 1 log10 decline of serum WHV DNA", "setting": "[5]; high dose 30 mg/kg daily oral", "value": "~3", "unit": "weeks"}, {"measurement": "average reduction of serum WHV DNA at the end of treatment", "setting": "[5]; high dose 30 mg/kg daily oral", "value": 3.7, "unit": "log10"}, {"measurement": "maximum reduction of hepatic WHV DNA RI from pretreatment level", "setting": "[5]; high dose 30 mg/kg", "value": 38, "unit": "%"}, {"measurement": "maximum reduction of hepatic WHV RNA from pretreatment level", "setting": "[5]; high dose 30 mg/kg", "value": 45, "unit": "%"}, {"measurement": "maximum reduction of hepatic WHV cccDNA from pretreatment level", "setting": "[5]; high dose 30 mg/kg", "value": 25, "unit": "%"}, {"measurement": "maximum reduction of serum WHsAg", "setting": "[5]; high dose 30 mg/kg", "value": 1.6, "unit": "log10"}, {"measurement": "time for serum WHV DNA to return to pretreatment level after withdrawal", "setting": "[5]; low dose 15 mg/kg", "value": "3-5 weeks"}, {"measurement": "time for serum WHsAg to return to pretreatment level after completion of treatment", "setting": "[5]; low dose 15 mg/kg", "value": "1-5 weeks"}, {"measurement": "weeks per approximately 1 log10 decline of serum WHV DNA", "setting": "[5]; low dose 15 mg/kg daily oral", "value": "~6", "unit": "weeks"}, {"measurement": "average reduction of serum WHV DNA at the end of treatment", "setting": "[5]; low dose 15 mg/kg daily oral", "value": 2.2, "unit": "log10"}, {"measurement": "maximum reduction of hepatic WHV DNA RI from pretreatment level", "setting": "[5]; low dose 15 mg/kg", "value": 19, "unit": "%"}, {"measurement": "maximum reduction of hepatic WHV RNA from pretreatment level", "setting": "[5]; low dose 15 mg/kg", "value": 22, "unit": "%"}, {"measurement": "maximum reduction of hepatic WHV cccDNA from pretreatment level", "setting": "[5]; low dose 15 mg/kg", "value": 16, "unit": "%"}, {"measurement": "maximum reduction of serum WHsAg", "setting": "[5]; low dose 15 mg/kg", "value": 0.5, "unit": "log10"}, {"measurement": "HBV DNA levels", "setting": "[6]", "value": "significant reduction"}, {"measurement": "secreted HBsAg and HBV e antigen (HBeAg)", "setting": "[6]; similar to IFN-α treatment", "value": "declines"}, {"measurement": "plasma exposure following oral administration", "setting": "[7]", "value": "dose-dependent"}]}]}
